Structures are written as SMILES.

For one assay, the target named is PI3K delta (Homo sapiens, UniProt O00329). The experiment in a line: PI3K delta inhibition in Rat1-myr-HA-p110 delta cells (Akt Ser473 phosphorylation, AlphaScreen SureFire). The class given is cell-based. Also on record: myristylation signal (myr) (N); HA tag (N); expressed in transfected cells; host or cells: Rat1 cells, stably transfected. The following applies: read-out: Cell PI3Kδ/ IC50. The protocol: Untreated cells were used as low controls, cells stimulated in absence of compounds were used as high controls. […] Cell lysates were either used immediately of stored frozen (in sealed plates) at −20° C. until use. […] Addition of AlphaScreen® SureFire® reagents was done according to the manufacturer's protocol. First, 5 ul of reaction buffer plus activation buffer mix containing AlphaScreen® acceptor beads was added, the plate was sealed, and incubated on a plate shaker for 2 hours at room temperature. […] The difference between high and low controls was taken as 100% and compound effects were expressed as percent inhibition. IC50 values were determined from the dose response curves by graphical extrapolation.
On the technique in general: Alpha assays give light when donor and acceptor beads are brought close together.

Assay [1] has as its system TLR9. Briefly: TLR9-induced IFNalpha in human PBMC (CpG2216, AlphaLISA). The class given is cell-based. The following applies: read-out: TLR9-ligand induced IFNα in human PBMC IC50. On the procedure: (§1) 2.4 Determination of TLR9-Induced IFNalpha in Human Peripheral Blood Mononuclear Cells (PBMCs) and Isolated Plasmacytoid Dendritic Cells (pDCs)
Human blood (ca. 75 ml) was collected in 10 S-Monovette tubes containing Heparin (S-Monovette 7.5 mL NH Heparin 16 IU/mL blood; Starstedt). Leucosep™ tubes (30 mL #227290; Greiner Bio-one) were prepared by addition of 15 ml lymphocyte separation medium LSM1077™ per tube (#J15-004; PAA Laboratories) and centrifugation for 30 sec at 1000 g. Some 25 ml blood was transferred to Leucosep™ tubes following dilution with equal parts of PBS (without Ca2+/Mg2+; #14190-094). […] The PBMC were counted using a Countess® Automated cell counter (sample was pre-diluted 1:10 in Media, prior to the addition of equal volume (10 μl) of Trypan Blue). […]
(§2) Compounds were pre-diluted in 100% v/v DMSO (#41640-100 mL; Sigma-Aldrich), followed by transfer in Media (to achieve a final DMSO concentration of 0.25%). […] Plates were briefly centrifuged (200×g for 2 min at 22° C.) and supernatant samples (30 μl) removed for quantification of IFNα levels.
For quantification of IFNalpha the human interferon AlphaLISA Kit (#AL264F) from PerkinElmer was used. […] Data were collected for analysis and quantification of IFNα levels.
Data were analysed using Excel XL fit 4.0 (Microsoft) with XLfit add-in (IDBS; version 4.3.2). […]

Assay [2] relates to TLR9. The experiment in a line: TLR9-induced IL-6 in murine splenocytes (CpG1826, ELISA). The class given is cell-based, C57BL/6 mice. The note with it: Mus musculus, Splenocyte; read-out: TLR9-ligand induced IL-6 in murine splenocytes IC50. On the procedure:
2.2 Determination of TLR9-Induced IL-6 in Murine Splenocytes
Spleens were dissected from C57BL/6 mice immediately following euthanasia. Excess fat was trimmed from the spleens prior to mashing the spleen through a […] cell strainer using a plunger from a 5 ml syringe. A single cell suspension was prepared and the volume was adjusted to 15 ml in a 50 ml Falcon tube using cold PBS. Cells were centrifuged at 1500 rpm for 5 minutes at 4° C. degrees prior to removal of supernatant and re-suspension in 5 ml of red blood cell lysis buffer per spleen and incubation for 5 minutes at room temperature. Ice cold PBS (30 ml) was added to the cells prior to centrifugation at 1500 rpm for 5 minutes at 4° C. The supernatant was removed and the cells were washed twice with 40 ml of murine splenocyte culture media (MSCM). […] Cells were re-suspended in 10-20 ml of MSCM and counted using a Countess cell counter. […]
After overnight culture, cells were transferred to 96-well V-bottomed plates and centrifuged at 2000 rpm for 5 minutes at room temperature. Subsequently 150 μl of each culture supernatant was transferred to 96-well flat-bottomed plates and […] were measured using commercially available mouse IL-6 sandwich ELISA kit (R&D systems). […] IL-6 levels were measured using a SpectraMax 190 Plate Reader (450 nm) and analyzed using SoftMax Pro and GraphPad Prism software.

Assay [3] has as its system TLR9. Briefly: TLR9-induced IFNalpha in isolated human pDCs (CpG2216, AlphaLISA). The class given is cell-based. The note with it: read-out: TLR9-ligand induced IFNα in human pDCs IC50. On the procedure: as §1
Human PBMCs were prepared using Buffy Coats as source material from healthy donations (approx. 50 ml obtained from Blutspendezentrum SRK Basel) and processed as indicated above. […]
as §2
For quantification of IFNalpha the human interferon AlphaLISA Kit (#AL264F) from PerkinElmer was used. […] After incubation, the plates were read with an EnVision™ multiplate reader equipped with the ALPHA option using the instrument's own “AlphaScreen standard settings” (e.g. total measurement time: 550 ms, Laser 680 nm excitation time: 180 ms, mirror: D640 as, emission filter: M570w, center wavelength 570 nm, bandwidth 100 nm, transmittance 75%). Data were collected for analysis and quantification of IFNα levels.
Data were analysed using Excel XL fit 4.0 (Microsoft) with XLfit add-in (IDBS; version 4.3.2). Specific IFNα concentrations were determined following extrapolation to standard curves using human IFNα B (2b). […]

Chain of PI3K delta (O00329 whole entry): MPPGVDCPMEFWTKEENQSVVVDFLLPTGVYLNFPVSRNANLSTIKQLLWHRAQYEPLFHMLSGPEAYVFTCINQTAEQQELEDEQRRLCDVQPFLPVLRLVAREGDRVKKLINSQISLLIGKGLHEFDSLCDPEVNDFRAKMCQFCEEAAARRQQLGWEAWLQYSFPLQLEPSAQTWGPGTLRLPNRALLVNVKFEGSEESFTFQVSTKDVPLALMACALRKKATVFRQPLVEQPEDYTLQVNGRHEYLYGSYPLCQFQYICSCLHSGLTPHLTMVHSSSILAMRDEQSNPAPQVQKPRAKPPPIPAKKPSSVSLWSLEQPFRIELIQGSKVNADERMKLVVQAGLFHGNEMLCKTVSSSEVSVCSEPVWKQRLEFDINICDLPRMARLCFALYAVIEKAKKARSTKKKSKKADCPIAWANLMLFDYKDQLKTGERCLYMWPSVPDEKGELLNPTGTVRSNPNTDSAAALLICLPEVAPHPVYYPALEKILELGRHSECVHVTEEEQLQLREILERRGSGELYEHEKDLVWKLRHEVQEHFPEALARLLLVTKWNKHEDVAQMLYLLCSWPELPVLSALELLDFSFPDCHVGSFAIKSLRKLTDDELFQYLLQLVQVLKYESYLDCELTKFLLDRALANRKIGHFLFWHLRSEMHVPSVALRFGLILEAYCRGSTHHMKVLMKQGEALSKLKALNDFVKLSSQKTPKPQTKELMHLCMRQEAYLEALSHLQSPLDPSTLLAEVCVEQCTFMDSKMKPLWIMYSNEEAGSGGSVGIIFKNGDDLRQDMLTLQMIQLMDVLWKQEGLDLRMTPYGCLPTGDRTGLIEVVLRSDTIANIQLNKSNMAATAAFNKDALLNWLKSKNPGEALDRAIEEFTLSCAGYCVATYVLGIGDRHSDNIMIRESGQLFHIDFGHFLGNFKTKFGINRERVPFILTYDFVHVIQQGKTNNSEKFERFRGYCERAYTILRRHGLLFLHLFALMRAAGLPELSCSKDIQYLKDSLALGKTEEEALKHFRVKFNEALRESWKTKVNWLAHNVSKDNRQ
Chain of PI3K delta (Q63787 whole entry partner): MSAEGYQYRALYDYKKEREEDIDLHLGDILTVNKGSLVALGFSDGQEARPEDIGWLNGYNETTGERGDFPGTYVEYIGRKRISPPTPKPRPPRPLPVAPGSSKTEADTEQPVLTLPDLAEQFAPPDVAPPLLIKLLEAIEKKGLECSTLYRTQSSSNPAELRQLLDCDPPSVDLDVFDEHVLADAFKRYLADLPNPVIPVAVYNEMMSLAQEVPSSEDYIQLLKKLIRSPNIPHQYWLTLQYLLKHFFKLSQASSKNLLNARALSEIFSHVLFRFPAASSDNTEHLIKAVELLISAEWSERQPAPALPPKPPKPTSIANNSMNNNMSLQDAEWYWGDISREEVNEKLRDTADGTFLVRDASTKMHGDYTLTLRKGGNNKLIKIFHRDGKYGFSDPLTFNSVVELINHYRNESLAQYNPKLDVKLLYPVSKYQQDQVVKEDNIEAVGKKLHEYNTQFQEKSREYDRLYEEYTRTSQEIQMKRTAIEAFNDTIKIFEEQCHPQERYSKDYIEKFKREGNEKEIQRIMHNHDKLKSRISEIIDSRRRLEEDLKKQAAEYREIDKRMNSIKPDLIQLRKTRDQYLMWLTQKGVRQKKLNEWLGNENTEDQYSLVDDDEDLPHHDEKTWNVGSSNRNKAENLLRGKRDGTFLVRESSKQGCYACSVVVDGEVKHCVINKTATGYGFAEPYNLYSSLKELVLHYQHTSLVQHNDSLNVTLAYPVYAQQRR

As to `COc1ncc(N2CCc3ncnc(O[C@H]4CCN(C(=O)c5cn(C)cn5)C4)c3C2)cc1C` [Example 20, {(S)-3-[6-(6-Methoxy-5-methyl-pyridin-3-yl)-5,6,7,8-tetrahydro-pyrido[4,3-d]pyrimidin-4-yloxy]-pyrrolidin-1-yl}-(1-methyl-1H-imidazol-4-yl)-methanone], the IC50 on PI3K delta stood at 254 nM.
With `COc1ncc(N2CCc3ncnc(O[C@H]4CCN(C(=O)C5CCOCC5)C4)c3C2)cc1C` [Example 1, {(S)-3-[6-(6-Methoxy-5-methyl-pyridin-3-yl)-5,6,7,8-tetrahydro-pyrido[4,3-d]pyrimidin-4-yloxy]-pyrrolidin-1-yl}-(tetrahydro-pyran-4-yl)-methanone], the IC50 in the assay with TLR9 [1] was found to be 211 nM; in the assay on TLR9 [2], 327 nM; in the assay on TLR9 [3], 50 nM.

These data come from patent US9949979B2, “Use of inhibitors of the activity or function of PI3K” (NOVARTIS AG, priority 2011, dated 2018).
